The source of these data is US20120329711A1, “GLP-1 RECEPTOR AGONIST COMPOUNDS WITH A MODIFIED N-TERMINUS” (Nordisk A/S, priority 2009, published 2012).

pEC50, pIC50: −log10 of the molar value.

For assay [1], the target named is T1, human GLP-1 receptor (Homo sapiens, UniProt P43220). Put plainly: In vitro potency: stimulation of cAMP formation in membranes expressing the human GLP-1 receptor (AlphaScreen cAMP Assay). In kind it is biochemical. The arrangement: expressed in transfected cells; membranes. The note with it: purified plasma membranes from BHK467-12A (tk-ts13) expressing the human GLP-1 receptor. The protocol:
Purified plasma membranes from a stable transfected cell line, BHK467-12A (tk-ts13), expressing the human GLP-1 receptor were stimulated with the GLP-1 receptor agonist derivative in question, and the potency of cAMP production was measured using the AlphaScreen™ cAMP Assay Kit from Perkin Elmer Life Sciences. The basic principle of The AlphaScreen Assay is a competition between endogenous cAMP and exogenously added biotin-cAMP. The capture of cAMP is achieved by using a specific antibody conjugated to acceptor beads.
A stable transfected cell line and a high expressing clone were selected for screening. The cells were grown at 5% CO2 in DMEM, 5% FCS, 1% Pen/Strep (Penicillin/Streptomycin) and 0.5 mg/ml of the selection marker G418.
Cells at approximate 80% confluence were washed 2× with PBS and harvested with Versene (aqueous solution of the tetrasodium salt of ethylenediaminetetraacetic acid), centrifuged 5 min at 1000 rpm and the supernatant removed. The additional steps were all made on ice. The cell pellet was homogenised by the Ultrathurax for 20-30 sec. in 10 ml of Buffer 1 (20 mM Na-HEPES, 10 mM EDTA, pH=7.4), centrifuged 15 min at 20.000 rpm and the pellet resuspended in 10 ml of Buffer 2 (20 mM Na-HEPES, 0.1 mM EDTA, pH=7.4). […] The protein concentration was determined and the membranes stored at −80° C. until use. […]
In general terms: Cyclic AMP is a second messenger, typically raised through Gs and lowered through Gi signalling.
Target sequence in this assay (P43220 24-463): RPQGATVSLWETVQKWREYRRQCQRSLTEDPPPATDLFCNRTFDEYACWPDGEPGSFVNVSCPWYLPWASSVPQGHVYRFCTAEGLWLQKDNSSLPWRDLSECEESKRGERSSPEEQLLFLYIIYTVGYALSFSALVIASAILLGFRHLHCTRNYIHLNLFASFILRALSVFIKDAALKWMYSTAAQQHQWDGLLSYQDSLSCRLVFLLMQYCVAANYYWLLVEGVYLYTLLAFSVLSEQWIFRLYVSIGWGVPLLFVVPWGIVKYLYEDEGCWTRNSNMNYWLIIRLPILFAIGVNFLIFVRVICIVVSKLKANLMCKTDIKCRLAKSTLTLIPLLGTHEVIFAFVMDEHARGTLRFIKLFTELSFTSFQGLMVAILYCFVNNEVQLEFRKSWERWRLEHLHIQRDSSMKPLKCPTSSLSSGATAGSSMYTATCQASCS

In assay [2] the target is T1, human GLP-1 receptor. Description: GLP-1 receptor binding: displacement of 125I-GLP-1 (SPA) at low and high albumin. The arrangement: expressed in transfected cells; membranes. The note with it: 2.0% HSA; displacement of 125I-GLP-1, BHK tk-ts13 membranes. As to the method:
The binding affinity of the GLP-1 receptor agonist derivatives of Examples 1-12 to the human GLP-1 receptor was measured by way of their ability to displace of ^125I-GLP-1 from the receptor.
In order to test the binding of the derivatives to albumin, the assay was performed with a low concentration of albumin (0.005%—corresponding to the residual amount thereof in the tracer), as well as with a high concentration of albumin (2.0% added).
Species (in vitro): Hamster
Biological End Point: Receptor Binding
A stable transfected cell line and a high expressing clone were selected for screening. The cells were grown at 5% CO2 in DMEM, 10% FCS, 1% Pen/Strep (Penicillin/Streptomycin) and 1.0 mg/ml of the selection marker G418.
The cells (approx. 80% confluence) were washed twice in PBS and harvested with Versene (aqueous solution of the tetrasodium salt of ethylenediaminetetraacetic acid), following which they were separated by centrifugation at 1000 rpm for 5 min. The cells/cell pellet must be kept on ice to the extent possible in the subsequent steps. […] The resulting pellet was resuspended in Buffer 2, and the protein concentration was determined. […]
Test compounds, membranes, SPA-particles and [^125I]-GLP-1(7-36)NH2 were diluted in assay buffer. […] The plates were centrifuged (1500 rpm, 10 min) and counted in Topcounter. […]

With `CC[C@H](C)[C@H](NC(=O)[C@H](Cc1ccccc1)NC(=O)[C@H](CCC(=O)O)NC(=O)[C@H](CCCCNC(=O)COCCOCCNC(=O)COCCOCCNC(=O)CC[C@H](NC(=O)CCCCCCCCCCCCCCCCC(=O)O)C(=O)O)NC(=O)[C@H](C)NC(=O)[C@H](C)NC(=O)[C@H](CCC(N)=O)NC(=O)CNC(=O)[C@H](CCC(=O)O)NC(=O)[C@H](CC(C)C)NC(=O)[C@H](Cc1ccc(O)cc1)NC(=O)[C@H](CO)NC(=O)[C@H](CO)NC(=O)[C@@H](NC(=O)[C@H](CC(=O)O)NC(=O)[C@H](CO)NC(=O)[C@@H](NC(=O)[C@H](Cc1ccccc1)NC(=O)[C@@H](NC(=O)CNC(=O)[C@H](CCC(=O)O)NC(=O)CCCC(=O)c1ccccc1)[C@@H](C)O)[C@@H](C)O)C(C)C)C(=O)N[C@@H](C)C(=O)N[C@@H](Cc1c[nH]c2ccccc12)C(=O)N[C@@H](CC(C)C)C(=O)N[C@H](C(=O)N[C@@H](CCCNC(=N)N)C(=O)NCC(=O)N[C@@H](CCCNC(=N)N)C(=O)NCC(=O)O)C(C)C` [Example 11, N^9-(5-oxo-5-phenylpentanoyl), N^ε26-[2-[2-[2-[[2-[2-[2-[[(4S)-4-carboxy-4-(17-carboxyheptadecanoylamino)butanoyl]amino]ethoxy]ethoxy]acetyl]amino]ethoxy]ethoxy]acetyl]-[Arg^34]-GLP-1-(9-37)-peptide], in assay [1], the pEC50 is < 8.10. Further, the pIC50 in assay [2] was < 6.10.

What is called pEC50 is −log10 of the EC50, conventionally taken in molar units. Read a high pEC50 as a small EC50. The term pIC50 denotes the IC50 on a negative log10 scale, so that one unit is a factor of ten.
